# Results reported in PubChem BioAssay (NCI).
#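 Growth conditions: 96-well plates. Treatment: test compound, 48 hours, 5 concentrations. Analysis: linear interpolation between bracketing concentrations; unreached endpoints set to highest concentration. The concentration for 50% growth inhibition is given as GI50. TGI is the concentration that stops growth completely.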
# System: IGROV1 ovarian
# Experiment: NCI-60 cell line screen, 48 h
SMILES,GI50 [µM],TGI [µM]
NC1CCCC[C@H]1N.N[C@@H]1CCCC[C@@H]1N.O=C(P(=O)([O-])[O-])P(=O)([O-])[O-].[Pt+4].[Pt+4],> 100,> 100
NC(N)=N/N=C/c1cc(Cl)cc(Cl)c1O,,> 100
O=C(CSc1nnc(-c2ccccc2NC(=O)C(F)(F)F)c(=O)[nH]1)NC(=O)Nc1ccccc1,,> 100
N#CC1Nc2ccccc2[C@@H](O)C1O (stereo not given in full),,> 100
O=C1c2ccn(CCCCNC(CO)(CO)CO)c2C(=O)c2c1c(O)c1ccccc1c2O,2.01,> 100
CCOC(=O)c1[nH]c(COC(C)=O)c(CCCOC(C)=O)c1CCCOC(C)=O,,> 100
CCN1C(=O)N(CC)C2C1NC(=S)N2/N=C/C=C/c1cccs1 (stereo not given),0.569,> 100
COc1ccc(C(=O)C(CO)Oc2ccccc2OC)cc1OC (stereo not given),,> 100

# System: NCI-H23 lung
# Experiment: NCI-60 cell line screen, 48 h
SMILES,GI50 [µM],TGI [µM]
Nc1nc(Nc2ccccc2)c2ncn(Cc3cc4c(cc3Br)OCO4)c2n1,0.0187,> 100
Nc1c(C(=O)N/N=C/c2ccc(-c3ccc(Cl)cc3)o2)cnn1-c1ccnc2c(C(F)(F)F)cccc12,> 100,> 100
CCCCCc1c(C)[nH]c(/C=C2\N=C(c3ccc[nH]3)C=C2CC)c1C,< 0.0124,0.135
CC(=O)Oc1ccccc1C(=O)N=C1[Se]CCN1C(=O)c1ccccc1OC(C)=O,1.56,5.43
CC1=C(C(=O)Nc2c(C)cccc2C)C(c2ccccc2Cl)C(C(=O)Nc2c(C)cccc2C)=C(C)N1,,> 100
O=C1CSC(Cc2nc3ccccc3[nH]2)=N1,,43.8
COc1ccccc1NC(=O)C1=C(C)NC(C)=C(C(=O)Nc2ccccc2OC)C1c1ccc([N+](=O)[O-])cc1,,> 100
CCOC(=O)[C@H](CCCNC(=O)OC(C)(C)C)NCc1ccc(OC)c(OC)c1,,> 100
O=C(/C=C/c1c(O)ccc2ccccc12)c1ccc2ccccc2c1,,> 100
O=[N+]([O-])c1ccc(-n2nnc(C3=NCCCN3)c2-c2ccc(Cl)cc2)cc1,,> 100
COC(=O)C12C3C4C5(C(=O)OC)C(C1C35C(=O)N(C(C)C)C(C)C)C42C(=O)N(C(C)C)C(C)C (stereo not given),,> 50
N#CC(C#N)=c1[nH]c2cccc3c2-c2c(cccc2c3=C(C#N)C#N)[nH]1,,> 100
C#C[C@]1(O)CC[C@H]2[C@@H]3CC=C4c5sc(Nc6ccccc6)nc5CC[C@]4(C)[C@H]3CC[C@@]21C,2.37,13.1
COC(=O)/C=C/C1C(C(=O)OC)C2(C(=O)OC)CCC1(C(=O)OC)N2 (stereo not given),,> 100
CSC1(CC(=O)N(C)C)C(=O)Nc2ccccc21 (stereo not given),,> 100
N#CC(/C(=N/NC(=O)C(=O)NN)C(=O)NC12CC3CC(CC(C3)C1)C2)c1ccccc1 (stereo not given),,> 100
CC(=O)OCC1OC([S-])C(OC(C)=O)C(OC(C)=O)C1OC(C)=O.CC[PH+](CC)CC.CC[PH+](CC)CC.[Au].[Au] (stereo not given),0.245,1.07
Cc1cc(C)n(CCNCCn2nc(C)cc2C)n1,,> 100
COc1cc2c(cc1OCc1ccccc1)CNCC2,,> 100
O=C(CN1CCCCC1)N1CCc2c([nH]c3ccccc23)C1c1cccnc1 (stereo not given),,> 100

SMILES,GI50 [µM],TGI [µM]
O/N=C\c1c(O)ccc2ccccc12,,> 100
CCCCCCCCCc1cc(=O)c2c(O)cccc2o1,,> 100
COc1cc2cn3c4ccc(O)cc4[nH]c(=O)c3c2cc1OC,0.0716,1.9
O=C(C[n+]1ccccc1)NNC(=O)/C(=C/c1ccc2c(c1)OCO2)NC(=O)c1ccccc1,,> 100
COc1ccc(/C=c2/sc3n(c2=O)C(c2ccc(OC)c(OC)c2)C2=C(N=3)c3cc(F)ccc3OC2)cc1 (stereo not given),3.69,26.1
O=S(O)CCCCSSCc1ccccc1CSSCCCCS(=O)O,,61.8
Clc1ccc(-c2c(C3=NCCN3)nnn2-c2ccc(Cl)cc2)cc1,,> 100
CC(C)(C)N1CC2(CCCCC2)C1=O,,> 100
O=C(CCC(=O)Nc1cccc(Cl)c1)CC(=O)c1ccc(Cl)cc1,,> 100
COc1ccc(C2C(C#N)=C(N)OC3=C2COc2ccc(F)cc23)cc1OC (stereo not given),13.1,36.7
NC1CCCC[C@H]1N.N[C@@H]1CCCC[C@@H]1N.O=C(P(=O)([O-])[O-])P(=O)([O-])[O-].[Pt+4].[Pt+4],> 100,> 100
NC(N)=N/N=C/c1cc(Cl)cc(Cl)c1O,,> 100
O=C(CSc1nnc(-c2ccccc2NC(=O)C(F)(F)F)c(=O)[nH]1)NC(=O)Nc1ccccc1,,> 100
N#CC1Nc2ccccc2[C@@H](O)C1O (stereo not given in full),,> 100
O=C1c2ccn(CCCCNC(CO)(CO)CO)c2C(=O)c2c1c(O)c1ccccc1c2O,3.01,7.78
c1ccc2c3ccn4cc5c(cc4c-3nc2c1)CCCC5,3.13,14.7
CCOC(=O)c1[nH]c(COC(C)=O)c(CCCOC(C)=O)c1CCCOC(C)=O,,> 100
CCN1C(=O)N(CC)C2C1NC(=S)N2/N=C/C=C/c1cccs1 (stereo not given),0.658,> 100
COc1ccc(C(=O)C(CO)Oc2ccccc2OC)cc1OC (stereo not given),,> 100

# System: OVCAR-3 ovarian
# Experiment: NCI-60 cell line screen, 48 h
SMILES,GI50 [µM],TGI [µM]
Nc1nc(Nc2ccccc2)c2ncn(Cc3cc4c(cc3Br)OCO4)c2n1,0.0326,0.237
Nc1c(C(=O)N/N=C/c2ccc(-c3ccc(Cl)cc3)o2)cnn1-c1ccnc2c(C(F)(F)F)cccc12,> 100,> 100
CCCCCc1c(C)[nH]c(/C=C2\N=C(c3ccc[nH]3)C=C2CC)c1C,0.0199,0.103
CC1=C(C(=O)Nc2c(C)cccc2C)C(c2ccccc2Cl)C(C(=O)Nc2c(C)cccc2C)=C(C)N1,,> 100
Cc1cn2c(/C=C3/C(=O)Nc4ccccc43)c(-c3ccc(Cl)cc3)nc2s1,9.82,17.9
O=C1CSC(Cc2nc3ccccc3[nH]2)=N1,,31.6
COc1ccccc1NC(=O)C1=C(C)NC(C)=C(C(=O)Nc2ccccc2OC)C1c1ccc([N+](=O)[O-])cc1,,> 100
CCOC(=O)[C@H](CCCNC(=O)OC(C)(C)C)NCc1ccc(OC)c(OC)c1,,> 100
O=C(/C=C/c1c(O)ccc2ccccc12)c1ccc2ccccc2c1,,> 100
O=[N+]([O-])c1ccc(-n2nnc(C3=NCCCN3)c2-c2ccc(Cl)cc2)cc1,,> 100
COC(=O)C12C3C4C5(C(=O)OC)C(C1C35C(=O)N(C(C)C)C(C)C)C42C(=O)N(C(C)C)C(C)C (stereo not given),,> 50
N#CC(C#N)=c1[nH]c2cccc3c2-c2c(cccc2c3=C(C#N)C#N)[nH]1,,> 100
C#C[C@]1(O)CC[C@H]2[C@@H]3CC=C4c5sc(Nc6ccccc6)nc5CC[C@]4(C)[C@H]3CC[C@@]21C,1.89,5.34
COC(=O)/C=C/C1C(C(=O)OC)C2(C(=O)OC)CCC1(C(=O)OC)N2 (stereo not given),,> 100
CSC1(CC(=O)N(C)C)C(=O)Nc2ccccc21 (stereo not given),,> 100
N#CC(/C(=N/NC(=O)C(=O)NN)C(=O)NC12CC3CC(CC(C3)C1)C2)c1ccccc1 (stereo not given),,> 100

SMILES,GI50 [µM],TGI [µM]
CC(=O)OCC1OC([S-])C(OC(C)=O)C(OC(C)=O)C1OC(C)=O.CC[PH+](CC)CC.CC[PH+](CC)CC.[Au].[Au] (stereo not given),0.376,1.19
Cc1cc(C)n(CCNCCn2nc(C)cc2C)n1,,> 100
COc1cc2c(cc1OCc1ccccc1)CNCC2,,> 100
O=C(CN1CCCCC1)N1CCc2c([nH]c3ccccc23)C1c1cccnc1 (stereo not given),,> 100
O/N=C\c1c(O)ccc2ccccc12,,66.7
CCCCCCCCCc1cc(=O)c2c(O)cccc2o1,,> 100
COc1cc2cn3c4ccc(O)cc4[nH]c(=O)c3c2cc1OC,< 0.01,0.214
O=C(C[n+]1ccccc1)NNC(=O)/C(=C/c1ccc2c(c1)OCO2)NC(=O)c1ccccc1,,> 100
COc1ccc(/C=c2/sc3n(c2=O)C(c2ccc(OC)c(OC)c2)C2=C(N=3)c3cc(F)ccc3OC2)cc1 (stereo not given),2.54,14.1
O=S(O)CCCCSSCc1ccccc1CSSCCCCS(=O)O,,25.2
Clc1ccc(-c2c(C3=NCCN3)nnn2-c2ccc(Cl)cc2)cc1,,> 100
CC(C)(C)N1CC2(CCCCC2)C1=O,,> 100
O=C(CCC(=O)Nc1cccc(Cl)c1)CC(=O)c1ccc(Cl)cc1,,> 100
COc1ccc(C2C(C#N)=C(N)OC3=C2COc2ccc(F)cc23)cc1OC (stereo not given),17.5,43.5
NC1CCCC[C@H]1N.N[C@@H]1CCCC[C@@H]1N.O=C(P(=O)([O-])[O-])P(=O)([O-])[O-].[Pt+4].[Pt+4],> 100,> 100
NC(N)=N/N=C/c1cc(Cl)cc(Cl)c1O,,> 100
